Experimental data from ChEMBL document CHEMBL5346865, “Male contraceptive development: A medicinal chemistry perspective” (Eur J Med Chem, 2022).

Legend:
Mus musculus = species on record: Mus musculus; assay: Contraceptive effect in mouse model of contraception; assay type: functional
[1] = Inhibition of sperm motility in human Spermatozoa incubated for 1 to 2 hrs by computer assisted sperm analysis; assay type: functional, cell-based
[2] = Inhibition of sperm motility in human Spermatozoa assessed as remaining progressive sperm motility relative to control; assay type: functional
[3] = Half life in cynomolgus monkey at 1 mg/kg, iv administered as single infusion dose; assay type: ADME, organism-based, Macaca fascicularis; details: in vivo

With `Cc1ccc(C2=CC(C)(C)Oc3ccc(-c4ccc(-c5ccc(C(=O)[O-])cc5)[nH]4)cc32)cc1.[Na+]` the Activity (Mus musculus) was >99%.
For `COC(=O)NNc1nc(Nc2ccc(NC(C)=O)c(O)c2)nc(SCC(=O)O)n1`, the IC50 [1] was 200 µM, the Activity [2] was <20% and the half-life [3] was < 12 min.
